Source: patent US10238631B2, “Sesquiterpene derivatives and their use in inflammation or cancer treatment” (Academia Sinica, priority 2014, dated 2019)

Columns and labels:
[1] = tested on: Melanocyte (Normal cells); assay: MTT cell viability assay, normal melanocytes; type: cell-based, human; settings: Homo sapiens, Melanocyte, 24 h
Method in brief: (§1)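 Viability is determined colorimetrically with MTT after a 24 h to 72 h compound treatment. Vehicle wells containing 0.5% DMSO define 100% viability, and treated OD570 values are expressed relative to them.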

[2] = tested on: MeWo (No NRAS or BRAF mutation); assay: MTT cell viability assay, MeWo melanoma; type: cell-based, human; settings: Homo sapiens, MeWo, 24 h
Method in brief: as §1

[3] = tested on: melanoma cell lines B16-F10, MeWo, A375, A2058, HTB-68; assay: MTT cell viability assay, all melanoma cell lines; type: cell-based; settings: 24 h, read-out: IC50 values over all types of melanoma cell lines
Method: Normal or cancer cells (2×10^3 to 1×10^4 cells/well) were seeded in 96-well plate for overnight and treated with different compounds for 24 h to 72 h. Cells growth were determined by MTT-based colorimetric assays according to. Viability of the test cells treated with vehicle (0.5% DMSO) only was defined as 100% viable. Survival of cells after treatment with DETDs was calculated using the following formula: viable cell number (%)=OD570 (treated cell culture)/OD570 (vehicle control)×100.
Several genes are involved in melanoma development and pathology; specifically, mutation in V-raf murine sarcoma viral oncogene homolog B1 (B-RAF) occurs approximately 50-60% and in neuroblastoma RAS viral oncogene homolog (N-RAS) occurs about 30% of malignant melanomas. A spectrum of wild-type or mutated melanoma cell lines including B16-F10, MeWo, A375, A2058, HTB-68, and melanocyte were used to study anti-melanoma cell proliferation activity of parental phytocompound DET and newly synthesized DETDs.

[4] = tested on: TS/A (ER+, Her2−) murine mammary cancer cells; assay: MTT cell viability assay, TS/A cells; type: cell-based; settings: Mus musculus, 24 h, read-out: IC50 on cell viability, TS/A (ER+, Her2−)
Method in brief: (§2)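 Viability is scored colorimetrically by MTT after cells, plated at 2×10^3 to 1×10^4 per well the night before, receive compounds for 24 h to 72 h; 0.5% DMSO-treated wells define 100%.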

A375 (BRAF mutation) = assay: MTT cell viability assay, A375 melanoma; type: cell-based, human; settings: Homo sapiens, A-375, 24 h, 24 h, MTT; read-out: IC50 on cell viability, A375 (BRAF mutation)
Method in brief: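 A375 cells were seeded at 2×10^3 to 1×10^4 per well overnight and then exposed to compounds for 24 h to 72 h. Viability was measured by MTT absorbance at OD570 relative to 0.5% DMSO vehicle (100%), and IC50 was derived from it. Combination with PLX4032 was scored by combination index.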

HTB-68 (NRAS mutation) = assay: MTT cell viability assay, HTB-68 melanoma; type: cell-based, human; settings: Homo sapiens, 24 h
Method in brief: as §1

[5] = tested on: LPS-induced nitric oxide (NO) production in RAW 264.7 cells; assay: Nitric oxide production in LPS-stimulated macrophages (Griess); type: cell-based, mouse; settings: Mus musculus; LPS-stimulated RAW264.7, nitrite 24 h after LPS
Method in brief: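 RAW 264.7 macrophages (2×10^5 cells/well) were pretreated with compound for 1 h and then stimulated with 100 ng/μL LPS for 24 h. NO was measured as nitrite in the medium by the Griess reaction. Viability was checked in parallel by MTT.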

[6] = tested on: MCF-7 (ER+, Her2−) human breast cancer cells; assay: MTT cell viability assay, MCF-7 cells; type: cell-based; settings: MCF7, 24 h, read-out: IC50 on cell viability, MCF-7 (ER+, Her2−)
Method in brief: as §2

A2058 (BRAF mutation) = assay: MTT cell viability assay, A2058 melanoma; type: cell-based, human; settings: Homo sapiens, A2058, 24 h
Method in brief: as §1

[7] = tested on: MDA-MB-231 (ER−, PR−, Her2−) human breast cancer cells; assay: MTT cell viability assay, MDA-MB-231 cells; type: cell-based; settings: Homo sapiens, MDA-MB-231, 24 h, read-out: IC50 on cell viability, MDA-MB-231 (ER−, PR−, Her2−)
Method in brief: as §2

B16-F10 (NRAS mutation) = assay: MTT cell viability assay, B16-F10 melanoma; type: cell-based; settings: Mus musculus, B16-F10, 24 h, 24 h, read-out: IC50 on cell viability, B16-F10 (NRAS mutation)
Method in brief: as §1

[8] = tested on: M10 normal mammary epithelial cells; assay: MTT cell viability assay, M10 normal cells; type: cell-based, human; settings: Homo sapiens, Epithelial cell, 24 h
Method in brief: as §2

[9] = tested on: RAW264.7 (normal macrophage); assay: MTT cell viability assay, RAW264.7 macrophages; type: cell-based, mouse; settings: Mus musculus, RAW264.7, 24 h
Method in brief: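 RAW264.7 macrophages (2×10^5 cells/well) pretreated with compounds 1 h, then incubated 24 h with or without 100 ng/μL LPS. Viability by MTT colorimetric assay run in parallel with Griess nitrite measurement.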

IC50 [2] [µM]	IC50 [3] [µM]	IC50 [4] [µM]	IC50 (A375 (BRAF mutation)) [µM]	IC50 (HTB-68 (NRAS mutation)) [µM]	IC50 [5] [µM]	IC50 [6] [µM]	IC50 (A2058 (BRAF mutation)) [µM]	IC50 [7] [µM]	IC50 (B16-F10 (NRAS mutation)) [µM]	Compound	IC50 [1] [µM]	IC50 [8] [µM]	IC50 [9] [µM]
9.1	1.6 to 9.9	2.4	3.4	7.6	1.6	3.7	5.2	4.3	2.5	C=C1C(=O)OC2CC3=C[C@@H](C/C(C)=C/C(OC(=O)c4cccs4)[C@H]12)OC3=O (stereo partly drawn) [DETD-30]	> 10	> 7.5	> 10
6	1.6 to 9.9	4.1	2.8	5	3.5	4.1	5.5	3.8	5.2	C=C1C(=O)OC2CC3=C[C@@H](C/C(C)=C/C(OC(=O)[C@@H](C)c4ccc5cc(OC)ccc5c4)[C@H]12)OC3=O (stereo partly drawn) [DETD-53]	> 10	4.8	> 10
4.8	1.6 to 9.9	2.1	2	4.9	3	3.3	4.1	2.7	4.9	C=C1C(=O)OC2CC3=C[C@@H](C/C(C)=C/[C@@H](OC(=O)/C=C/c4ccc(OCC)cc4)[C@H]12)OC3=O (stereo partly drawn) [DETD-60]	> 10	4	> 10
